# Laboratory results taken from US4710578A, “Isothiuronium salts” (Peremartoni Vegyipari Vallalat, priority 1984, dated 1987).
# Structures can show the parent of a compound that is named as a salt. Where two headings read alike, the source gives them in different places.
# Tests used:
# tumor cells = assay: Testing of antitumor effect (overall)
# [1] = tested on: neutrophylic granulocytes and limphocytes; conditions: mouse, in vivo, po
# [2] = tested on: neutrophilic granulocytes, lymphocytes and macrophages; assay: Preliminary rapid test: immunostimulant effect; format: in vivo, CFLP male mice; conditions: oral, one-tenth of LD50; 24 hours
# NK-yl ascites tumor = assay: Combinations with known cytostatic agents in NK-ly ascites tumor; format: in vivo, CFLP mice; conditions: with cyclophosphamide, carnomustine, degranol, dibromo dulcitol or dibromo mannitol
# [3] = in vivo, 24 h
# NK-ly-ascites lymphoma = NK-ly-ascites lymphoma in vivo; design: species or system CFLP male mice
# human lymphocytes [4] = assay: ADCC, 51Cr release from chicken erythrocytes; format: cell-based; conditions: for Cytotoxicity index, ADCC: 5:1, 4 hours, n=10, ± S.E.
# Protocol: (§1) Lymphocytes were separated on Ficoll-Uromiro (Boyum 1968) gradient from the venal blood of healthy donors and patients suffering from malignant lymphoma and metastatizing solid tumours, respectively. When selecting the patients belonging to the latter group, the decreased ADCC and NK activity was taken into consideration. The phagocytes were removed by treatment with iron powder and a magnet.
# ADCC was determined according to the method of Perlmann and Perlmann (1970) with minor modifications (Lang et al, 1981). Chicken erythrocytes labelled with 10^5 51 Cr and coated with anti-chicken erythrocyte rabbit-serum were incubated with the lymphocytes for 4 hours at 37° C. The reaction having been stopped the activity of the supernatant of the centrifuged cells was determined in a gamma-counter. The rate of chrome-release was expressed as the cytotoxicity index (CI %). This value was calculated as described in one of our earlier publications (Lang et al., 1980)--(see Table I).
# Effect on ADDC. Cytotoxicity index /%/.
# Ratio of effector cells; aimed cells = 5:1. Incubation time 4 hours.
# human lymphocytes [5] = assay: Mitogen-induced blastos transformation (PHA, Con A); format: cell-based
# Protocol: Lymphocytes were cultivated in a TC 199 liquid nutrient medium completed by 10% decomplemented calf serum, antibiotics and […] HEPES (Serva). 200 μl of a cell suspension comprising 2.10^5 lymphocytes were placed on a microplate (manufacturer: Sterilin Great Britain); five parallels were carried out each.
# 2 and 10 μg/ml, respectively of Phytohaemagglutinine (Leucoagglutinine; manufacturer Pharmacie Sweden) and 25 μg/ml of Concanavalin A (Carbiochem) were added to the cultures; the above values relate to final concentration. The cultures were cultivated at 37° C. for 72 hours. Eight hours before the termination of the end of the cultivating period 0.5 μCi ^3 H thymidine (Chemapol. Czechoslovakia) was added to the samples. Incubation was stopped by freezing the cultures. After melting the samples were filtered on an automatic harvester (Dynatech). The radioactivity of the samples was measured in a scintillation counter. The activity was expressed as c.p.m. (Tables IV and V).
# human lymphocytes [6] = assay: NK activity, 51Cr release from K-562 tumor cells; format: cell-based; conditions: for Cytotoxicity index, NK activity: 50:1, 4 hours, ± S.E.
# Protocol: as §1
# NK activity was determined by the method of Jondal and Pross (1975) by using minor modifications (Lang et al, 1981). K-562 tumor cells labelled by ^51 Cr were incubated with effector cells in a TC 199 liquid nutrient medium comprising 10% of decomplemented calf serum. The reaction having been stopped the radioactivity of the superntant of the centrifuged cells (chrome release) was counted in a gamma-counter. The killing of the tumor cells (cytotoxicity index %) was expressed as the difference of the test release and spontaneous release.
# Ratio of effector cells: aimed cells = 50:1.
# Incubation time 4 hours.
# [7] = tested on: human polymorphonuclear leucocytes; assay: Direct /random/ migration of human polymorphonuclear leucocytes on agarose microdrops; format: cell-based; conditions: seven healthy controls, ± S.E.M.
# Protocol: Spontaneous (random) migration of leukocytes was measured on agarose microdrops according to the method of McCoy et al (1977) by carrying out some minor modifications (Kalmar and Gergely, 1982).
# […] agarose drops (0.2%) were placed on migration plates (Greiner, German Federal Republic). TC 199 liquid nutrient medium was added and the plates were air-tightly closed. After 24 hours the migration area were measured under a stereomicroscope. The migration area were expressed in mm^2.
# [8] = Decreased ADCC, 6,7 × 10^-8 mole
# [9] = Decreased ADCC, 6,7 × 10^-9 mole
# [10] = Decreased ADCC, 6,7 × 10^-10 mole
smiles,measurement,setting,value
"CC(C)N=C(NC(=N)N)SCCCCl [Example 35, N-aminoiminomethyl-N'-isopropyl-S-(3-chloropropyl)-isothiuronium bromide]",Antitumor effect,tumor cells,outstanding antitumor effect
"N=C(N)NC(=N)SCCCCl [Example 15, N-Aminoiminomethyl-S-(3-Chloropropyl)-Isothiuronium Bromide]",Antitumor effect,tumor cells,outstanding antitumor effect
same,Toxic effect,[1],0
same,Immunostimulant effect,[2],weak
same,Antitumor effect of combination vs cytostatic agent alone,NK-yl ascites tumor,the antitumor effect was strengthened
same,Immunodepression of combination vs cytostatic agent alone,NK-yl ascites tumor,immunodepression decreased
same,LD50 at 24 h,in vivo; po,1210 ± 180 mg/kg
"N=C(N)NC(=N)SCCCBr [Example 28, N-aminoiminomethyl-S-(3-bromo-propyl)-isothiuronium bromide]",Antitumor effect,tumor cells,outstanding antitumor effect
same,Toxic effect,[1],0
same,Immunostimulant effect,[2],weak
same,Antitumor effect of combination vs cytostatic agent alone,NK-yl ascites tumor,the antitumor effect was strengthened
same,Immunodepression of combination vs cytostatic agent alone,NK-yl ascites tumor,immunodepression decreased
same,LD50 at 24 h,in vivo; po,980 ± 640 mg/kg
"C=C(C)CSC(=NC1CCCCC1)NC(=N)N [Example 38, N-aminoiminomethyl-N'-cyclohexyl-S-methallyl-isothiuronium chloride]",Antitumor effect,tumor cells,outstanding antitumor effect
"C=CCSC(=NC1CCCCC1)NC(=N)N [Example 22, N-Aminoiminomethyl-N'-Cyclohexyl-S-Allyl-Isothiuronium Chloride]",Toxic effect,[1],0
same,Immunostimulant effect,[2],weak
same,LD50,[3]; ip,40 ± 6 mg/kg
same,LD50,[3]; po,400 ± 38 mg/kg
same,Activity against NK-ly-ascites tumor,NK-ly-ascites lymphoma; concentration below one-tenth of the LD50 value,active agains Nk-ly-ascites tumor in a concentration below one-tenth of the LD50 value
same,Survival rate and lifetime,NK-ly-ascites lymphoma; dose-dependant,increase survival rate and lifetime in a dose-dependant manner
same,Cytotoxical dose range,"NK-ly-ascites lymphoma; mouse, in vivo",40 to 160 mg/kg
same,LD50 at 24 h,in vivo; ip,65 ± 5.1 mg/kg
same,LD50 at 24 h,in vivo; po,450 ± 51 mg/kg
"C=C(C)CSC(=NC(C)C)NC(=N)N [Example 36, N-aminoiminomethyl-N'-isopropyl-S-methallyl-isothiuronium chloride]",Antitumor effect,tumor cells,outstanding antitumor effect
"C=CCSC(=NCC)NC(=N)N [Example 34, N-aminoiminomethyl-N'-ethyl-S-allyl-isothiuronium chloride]",Antitumor effect,tumor cells,outstanding antitumor effect
same,Toxic effect,[1],0
same,Immunostimulant effect,[2],medium (Medium effect is observed if the increase of cell number or activity over the control amounts to 20%)
same,LD50 at 24 h,in vivo; ip,84 ± 7.6 mg/kg
same,LD50 at 24 h,in vivo; po,780 ± 62 mg/kg
"C=CCSC(=N)NC(=N)N [Compound A, N-/aminoiminomethyl/-S-allyl-isothiuronium salts (halogenides)]",Change of ADCC cytotoxicity index vs control,human lymphocytes [4]; [8],+264%
same,"Cytotoxicity index, ADCC",human lymphocytes [4]; [8],10.2 ± 2.7%
same,Change of ADCC cytotoxicity index vs control,human lymphocytes [4]; [9],+175%
same,"Cytotoxicity index, ADCC",human lymphocytes [4]; [9],7.7 ± 1.9%
same,Change of ADCC cytotoxicity index vs control,human lymphocytes [4]; [10],+126%
same,"Cytotoxicity index, ADCC",human lymphocytes [4]; [10],6.35 ± 1.7%
same,Change of ADCC cytotoxicity index vs control,"human lymphocytes [4]; Normal ADCC, 6,7 × 10^-8 mole",+62%
same,"Cytotoxicity index, ADCC","human lymphocytes [4]; Normal ADCC, 6,7 × 10^-8 mole",68.2 ± 5.3%
same,Change of ADCC cytotoxicity index vs control,"human lymphocytes [4]; Normal ADCC, 6,7 × 10^-9 mole",+52%
same,"Cytotoxicity index, ADCC","human lymphocytes [4]; Normal ADCC, 6,7 × 10^-9 mole",64 ± 5.8%
same,Change of ADCC cytotoxicity index vs control,"human lymphocytes [4]; Normal ADCC, 6,7 × 10^-10 mole",+39%
same,"Cytotoxicity index, ADCC","human lymphocytes [4]; Normal ADCC, 6,7 × 10^-10 mole",58.5 ± 5.2%
same,"Blastos transformation, average c.p.m.","human lymphocytes [5]; healthy controls n=6, Con A 25 μg/ml, dose 0.1 μg/ml",10564 c.p.m.
same,"Blastos transformation, average c.p.m.","human lymphocytes [5]; healthy controls n=6, Con A 25 μg/ml, dose 1.0 μg/ml",14089 c.p.m.
same,"Blastos transformation, average c.p.m.","human lymphocytes [5]; healthy controls n=6, Con A 25 μg/ml, dose 10.0 μg/ml",17038 c.p.m.
same,"Blastos transformation, average c.p.m.","human lymphocytes [5]; healthy controls n=6, PHA 2 μg/ml, dose 0.1 μg/ml",22233 c.p.m.
same,"Blastos transformation, average c.p.m.","human lymphocytes [5]; healthy controls n=6, PHA 2 μg/ml, dose 1.0 μg/ml",23156 c.p.m.
same,"Blastos transformation, average c.p.m.","human lymphocytes [5]; healthy controls n=6, PHA 2 μg/ml, dose 10.0 μg/ml",25404 c.p.m.
same,"Blastos transformation, average c.p.m.","human lymphocytes [5]; healthy controls n=6, PHA 10 μg/ml, dose 0.1 μg/ml",29969 c.p.m.
same,"Blastos transformation, average c.p.m.","human lymphocytes [5]; healthy controls n=6, PHA 10 μg/ml, dose 1.0 μg/ml",33826 c.p.m.
same,"Blastos transformation, average c.p.m.","human lymphocytes [5]; healthy controls n=6, PHA 10 μg/ml, dose 10.0 μg/ml",33790 c.p.m.
same,"Blastos transformation, average c.p.m.","human lymphocytes [5]; patients of decreased reactivity /tumor and SLE/ n=6, Con A 25 μg/ml, dose 0.1 μg/ml",1097 c.p.m.
same,"Blastos transformation, average c.p.m.","human lymphocytes [5]; patients of decreased reactivity /tumor and SLE/ n=6, Con A 25 μg/ml, dose 1.0 μg/ml",935 c.p.m.
same,"Blastos transformation, average c.p.m.","human lymphocytes [5]; patients of decreased reactivity /tumor and SLE/ n=6, Con A 25 μg/ml, dose 10.0 μg/ml",1023 ± 361 c.p.m.
same,"Blastos transformation, average c.p.m.","human lymphocytes [5]; patients of decreased reactivity /tumor and SLE/ n=6, PHA 2 μg/ml, dose 0.1 μg/ml",2877 c.p.m.
same,"Blastos transformation, average c.p.m.","human lymphocytes [5]; patients of decreased reactivity /tumor and SLE/ n=6, PHA 2 μg/ml, dose 1.0 μg/ml",4344 c.p.m.
same,"Blastos transformation, average c.p.m.","human lymphocytes [5]; patients of decreased reactivity /tumor and SLE/ n=6, PHA 2 μg/ml, dose 10.0 μg/ml",4716 ± 1287 c.p.m.
same,"Blastos transformation, average c.p.m.","human lymphocytes [5]; patients of decreased reactivity /tumor and SLE/ n=6, PHA 10 μg/ml, dose 0.1 μg/ml",5802 c.p.m.
same,"Blastos transformation, average c.p.m.","human lymphocytes [5]; patients of decreased reactivity /tumor and SLE/ n=6, PHA 10 μg/ml, dose 1.0 μg/ml",6323 c.p.m.
same,"Blastos transformation, average c.p.m.","human lymphocytes [5]; patients of decreased reactivity /tumor and SLE/ n=6, PHA 10 μg/ml, dose 10.0 μg/ml",6968 ± 1669 c.p.m.
same,Change of NK cytotoxicity index vs control,"human lymphocytes [6]; Decreased NK, 6.7 × 10^-9 mole/ml",+68%
same,"Cytotoxicity index, NK activity","human lymphocytes [6]; Decreased NK, 6.7 × 10^-9 mole/ml, n=7",25.3 ± 3.2%
same,Change of NK cytotoxicity index vs control,"human lymphocytes [6]; Decreased NK, 6.7 × 10^-10 mole/ml",+43%
same,"Cytotoxicity index, NK activity","human lymphocytes [6]; Decreased NK, 6.7 × 10^-10 mole/ml, n=7",21.6 ± 3.0%
same,Change of NK cytotoxicity index vs control,"human lymphocytes [6]; Decreased NK, third dose column (printed 6.7 × 10^-31 8)",+113%
same,"Cytotoxicity index, NK activity","human lymphocytes [6]; Decreased NK, third dose column (printed 6.7 × 10^-31 8) mole/ml, n=7",32.2 ± 3.2%
same,Change of NK cytotoxicity index vs control,"human lymphocytes [6]; Normal NK, 6.7 × 10^-9 mole/ml",+32%
same,"Cytotoxicity index, NK activity","human lymphocytes [6]; Normal NK, 6.7 × 10^-9 mole/ml, n=8",43.4 ± 2.7%
same,Change of NK cytotoxicity index vs control,"human lymphocytes [6]; Normal NK, 6.7 × 10^-10 mole/ml",+25%
same,"Cytotoxicity index, NK activity","human lymphocytes [6]; Normal NK, 6.7 × 10^-10 mole/ml, n=8",41 ± 2.9%
same,Change of NK cytotoxicity index vs control,"human lymphocytes [6]; Normal NK, third dose column (printed 6.7 × 10^-31 8)",+45%
same,"Cytotoxicity index, NK activity","human lymphocytes [6]; Normal NK, third dose column (printed 6.7 × 10^-31 8) mole/ml, n=8",47.6 ± 1.4%
same,Migration area,"[7]; 0.1 μg/ml, non significant",10.51 mm^2
same,Migration area,"[7]; 1.0 μg/ml, p < 0.01",12.25 ± 1.58 mm^2
same,Migration area,"[7]; 10.0 μg/ml, p < 0.01",11.24 ± 1.69 mm^2
